Results published in ChEMBL document CHEMBL3885881, “DrugMatrix”.

Species on record: Rattus norvegicus
Assay: DrugMatrix - Regimen: Daily Repeat
Assay type: toxicity, organism-based, Sprague-Dawley
Set-up: regimen Daily Repeat, gender Male, age 6-8 weeks
Conditions: in vivo, vehicle 100 % SALINE; for ABSOLUTE BASOPHIL / ABSOLUTE EOSINOPHIL / ABSOLUTE LYMPHOCYTE / ABSOLUTE MONOCYTE / ABSOLUTE SEGMENTED NEUTROPHIL / BASOPHIL / EOSINOPHIL / ERYTHROCYTE COUNT / HEMATOCRIT / HEMOGLOBIN / LEUKOCYTE COUNT / LYMPHOCYTE / MEAN CORPUSCULAR HEMOGLOBIN / MEAN CORPUSCULAR HEMOGLOBIN CONCENTRATION / MEAN CORPUSCULAR VOLUME / MONOCYTE / NEUTROPHIL / NUCLEATED RED BLOOD CELLS / PLATELET COUNT: tissue Blood
[1] = iv, 0 mg/kg, 72 h, dose level Control, time 3 day
[2] = iv, 0 mg/kg, 72 h, tissue Plasma, dose level Control, time 3 day
[3] = iv, 0 mg/kg, 120 h, dose level Control, time 5 day
[4] = iv, 0 mg/kg, 120 h, tissue Plasma, dose level Control, time 5 day
[5] = iv, 6 mg/kg, 72 h, dose level Low, time 3 day
[6] = iv, 6 mg/kg, 72 h, tissue Plasma, dose level Low, time 3 day

In the case of CARBOPLATIN, the “TOTAL PROTEIN” value (ip, 5 mg/kg, […], tissue Plasma, route intraperitoneal, dose level High, time 28 day) is reported as 6.92 G/DL, the “ABSOLUTE BASOPHIL” value [1] is reported as 0 CELLS/uL and the “ABSOLUTE EOSINOPHIL” value [1] is reported as 0 CELLS/uL. The “ABSOLUTE LYMPHOCYTE” value [1] was 7026.17 CELLS/uL, the “ABSOLUTE MONOCYTE” value [1] was 44.33 CELLS/uL and the “ABSOLUTE SEGMENTED NEUTROPHIL” value [1] was 379.5 CELLS/uL. The BASOPHIL [1] was 0%, the EOSINOPHIL [1] was 0% and the “ERYTHROCYTE COUNT” value [1] was 5.49 x10E6/uL. For the same sequence, the HEMATOCRIT [1] was 33.67%, the HEMOGLOBIN [1] was 13.17 G/DL and the “LEUKOCYTE COUNT” value [1] was 7.45 x10E3/uL. The LYMPHOCYTE [1] was 94%, the “MEAN CORPUSCULAR HEMOGLOBIN” value [1] was 24.03 pg and the “MEAN CORPUSCULAR HEMOGLOBIN CONCENTRATION” value [1] was 39.15 G/DL. For the same sequence, the “MEAN CORPUSCULAR VOLUME” value [1] was 61.4 fL, the MONOCYTE [1] was 0.67% and the NEUTROPHIL [1] was 5.33%. The “NUCLEATED RED BLOOD CELLS” value [1] was 0.17 /100WBC, the “PLATELET COUNT” value [1] was 1062.5 x10E3/uL and the “ALANINE AMINOTRANSFERASE” value [2] was 53.17 u/L. The “ALKALINE PHOSPHATASE” value [2] was 339.83 u/L, the “ASPARTATE AMINOTRANSFERASE” value [2] was 83.33 u/L and the “BLOOD UREA NITROGEN” value [2] was 16 mg/dL. The “CARBON DIOXIDE” value [2] was 32.5 mmol/L, the CHLORIDE [2] was 98 MEQ/L and the CHOLESTEROL [2] was 74.67 mg/dL. The “CREATINE PHOSPHOKINASE” value [2] was 284 u/L, the CREATININE [2] was 0.2 mg/dL and the GLUCOSE [2] was 128.67 mg/dL. For the same sequence, the “LACTATE DEHYDROGENASE” value [2] was 110.33 u/L, the LIPASE [2] was 9 u/L and the PHOSPHORUS [2] was 11.73 mg/dL. For the same sequence, the POTASSIUM [2] was 6.34 MEQ/L, the “TOTAL BILIRUBIN” value [2] was 0.18 mg/dL and the “TOTAL PROTEIN” value [2] was 6.2 G/DL. The “URIC ACID” value [2] was 1.28 mg/dL, the “ABSOLUTE BASOPHIL” value [3] was 0 CELLS/uL and the “ABSOLUTE EOSINOPHIL” value [3] was 26.67 CELLS/uL. The “ABSOLUTE LYMPHOCYTE” value [3] was 8334.17 CELLS/uL, the “ABSOLUTE MONOCYTE” value [3] was 29.5 CELLS/uL and the “ABSOLUTE SEGMENTED NEUTROPHIL” value [3] was 593 CELLS/uL. The BASOPHIL [3] was 0%, the EOSINOPHIL [3] was 0.33% and the “ERYTHROCYTE COUNT” value [3] was 5.44 x10E6/uL. The HEMATOCRIT [3] was 33.77%, the HEMOGLOBIN [3] was 13.05 G/DL and the “LEUKOCYTE COUNT” value [3] was 8.98 x10E3/uL. The LYMPHOCYTE [3] was 92.33%, the “MEAN CORPUSCULAR HEMOGLOBIN” value [3] was 24 pg and the “MEAN CORPUSCULAR HEMOGLOBIN CONCENTRATION” value [3] was 38.67 G/DL. The “MEAN CORPUSCULAR VOLUME” value [3] was 62.05 fL, the MONOCYTE [3] was 0.33% and the NEUTROPHIL [3] was 7%. For the same sequence, the “NUCLEATED RED BLOOD CELLS” value [3] was 0 /100WBC, the “PLATELET COUNT” value [3] was 987 x10E3/uL and the “ALANINE AMINOTRANSFERASE” value [4] was 43.5 u/L. For the same sequence, the “ALKALINE PHOSPHATASE” value [4] was 310.17 u/L, the “ASPARTATE AMINOTRANSFERASE” value [4] was 76.67 u/L and the “BLOOD UREA NITROGEN” value [4] was 17 mg/dL. For the same sequence, the CHLORIDE [4] was 100.33 MEQ/L, the CHOLESTEROL [4] was 69.33 mg/dL and the “CREATINE PHOSPHOKINASE” value [4] was 218.67 u/L. For the same sequence, the CREATININE [4] was 0.22 mg/dL, the GLUCOSE [4] was 155.17 mg/dL and the PHOSPHORUS [4] was 11.2 mg/dL. For the same sequence, the POTASSIUM [4] was 5.5 MEQ/L, the “TOTAL BILIRUBIN” value [4] was 0.18 mg/dL and the “TOTAL PROTEIN” value [4] was 5.97 G/DL. The “URIC ACID” value [4] was 0.88 mg/dL, the “ABSOLUTE BASOPHIL” value [5] was 0 CELLS/uL and the “ABSOLUTE EOSINOPHIL” value [5] was 20.67 CELLS/uL. For the same sequence, the “ABSOLUTE LYMPHOCYTE” value [5] was 6996.67 CELLS/uL, the “ABSOLUTE MONOCYTE” value [5] was 29.33 CELLS/uL and the “ABSOLUTE SEGMENTED NEUTROPHIL” value [5] was 353.33 CELLS/uL. The BASOPHIL [5] was 0%, the EOSINOPHIL [5] was 0.33% and the “ERYTHROCYTE COUNT” value [5] was 5.49 x10E6/uL. For the same sequence, the HEMATOCRIT [5] was 35.33%, the HEMOGLOBIN [5] was 13.67 G/DL and the “LEUKOCYTE COUNT” value [5] was 7.4 x10E3/uL. The LYMPHOCYTE [5] was 94.67%, the “MEAN CORPUSCULAR HEMOGLOBIN CONCENTRATION” value [5] was 38.67 G/DL and the MONOCYTE [5] was 0.33%. The NEUTROPHIL [5] was 4.67%, the “NUCLEATED RED BLOOD CELLS” value [5] was 0 /100WBC and the “PLATELET COUNT” value [5] was 803.67 x10E3/uL. For the same sequence, the “ALANINE AMINOTRANSFERASE” value [6] was 44.67 u/L, the ALBUMIN [6] was 4.3 G/DL and the “ALKALINE PHOSPHATASE” value [6] was 291.67 u/L. The “ASPARTATE AMINOTRANSFERASE” value [6] was 75.67 u/L, the “CARBON DIOXIDE” value [6] was 32 mmol/L and the CHLORIDE [6] was 97.67 MEQ/L. The CHOLESTEROL [6] was 72.33 mg/dL, the “CREATINE PHOSPHOKINASE” value [6] was 262.33 u/L and the CREATININE [6] was 0.2 mg/dL. The GLUCOSE [6] was 147.33 mg/dL, the “LACTATE DEHYDROGENASE” value [6] was 105 u/L and the LIPASE [6] was 9 u/L. The POTASSIUM [6] was 6.04 MEQ/L and the “TOTAL BILIRUBIN” value [6] was 0.17 mg/dL.
